Measurements as given in ChEMBL document CHEMBL5052856, “Inhibitors of apol1 and methods of using same” (2021).

molecular target: Apolipoprotein L1 (Homo sapiens, UniProt O14791); assay: Inhibition of APOL1 G1 variant in human HEK293-T-REx cells measured by Thallium assay; type: cell-based

| SMILES | IC50 |
| --- | --- |
| O=C(CC1CC(c2c(-c3ccc(F)cc3)[nH]c3c(F)cc(F)cc23)C1)N[C@@H](CO)C(F)(F)F (some centres not stated) | > 1000 nM |
| NC(=O)CNC1CC(c2c(-c3ccc(F)cc3)[nH]c3c(F)cc(F)cc23)C1 (configuration not stated) | > 1000 nM |
| Cn1cc(CNC(=O)O[C@H]2C[C@H](c3c(-c4ccc(F)cc4)[nH]c4c(F)cc(F)cc43)C2)nn1 | > 1000 nM |
| O=C([C@H]1C[C@@H](c2c(-c3ccc(F)cc3)[nH]c3c(F)cc(F)cc32)C1)N1C[C@@H](O)[C@H](O)C1 | > 1000 nM |
| O=C(NC[C@H]1C[C@H](c2c(-c3ccc(F)cc3)[nH]c3c(F)cc(F)cc32)C1)NC1(CO)CCOC1 (some centres not stated) | > 1000 nM |
| O=C(NCC1(CO)COC1)NC[C@H]1C[C@H](c2c(-c3ccc(F)cc3)[nH]c3c(F)cc(F)cc32)C1 | > 1000 nM |
| O=C(NC[C@H]1C[C@H](c2c(-c3ccc(F)cc3)[nH]c3c(F)cc(F)cc32)C1)NC1(CO)CC(F)(F)C1 | > 1000 nM |
| O=C1CCC(NC(=O)[C@H]2C[C@@H](c3c(-c4ccc(F)cc4)[nH]c4c(F)cc(F)cc43)C2)C(=O)N1 (some centres not stated) | > 1000 nM |
| O=C(N[C@H]1COC[C@@H]1O)O[C@H]1C[C@H](c2c(-c3ccc(F)cc3)[nH]c3c(F)cc(F)cc32)C1 | > 1000 nM |
| O=C(NC1CCOC1)O[C@H]1C[C@H](c2c(-c3ccc(F)cc3)[nH]c3c(F)cc(F)cc32)C1 (some centres not stated) | > 1000 nM |
| O=C(CC1CC(c2c(-c3ccc(F)cc3)[nH]c3c(F)cc(F)cc23)C1)N[C@H]1CCNC1=O (some centres not stated) | > 1000 nM |
| COC1CC1NC(=O)O[C@H]1C[C@H](c2c(-c3ccc(F)cc3)[nH]c3c(F)cc(F)cc32)C1 (some centres not stated) | > 1000 nM |
| NC(=O)CCNC1CC(c2c(-c3ccc(F)cc3)[nH]c3c(F)cc(F)cc23)C1 (configuration not stated) | > 1000 nM |
| O=C(NC1CCNC1=O)N[C@H]1C[C@H](c2c(-c3ccc(F)cc3)[nH]c3c(F)cc(F)cc32)C1 (some centres not stated) | > 1000 nM |
| CC(C)NC(=O)CN[C@H]1C[C@H](c2c(-c3ccc(F)cc3)[nH]c3c(F)cc(F)cc32)C1 | > 1000 nM |
| C[C@H](CO)NC(=O)C1CCC(c2c(-c3ccc(F)cc3)[nH]c3c(F)cc(F)cc23)C1 (some centres not stated) | > 1000 nM |
| C[C@H](O)CNC(=O)C1CC(Cc2c(-c3ccc(F)cc3)[nH]c3c(F)cc(F)cc23)C1 (some centres not stated) | > 1000 nM |
| O=C(NCCn1cncn1)[C@H]1C[C@@H](c2c(-c3ccc(F)cc3)[nH]c3c(F)cc(F)cc32)C1 | > 1000 nM |
| O=C(NCc1ncc[nH]1)O[C@H]1C[C@H](c2c(-c3ccc(F)cc3)[nH]c3c(F)cc(F)cc32)C1 | > 1000 nM |
| O=C(Nc1ccc[nH]c1=O)C1CC(Cc2c(-c3ccc(F)cc3)[nH]c3c(F)cc(F)cc23)C1 (configuration not stated) | > 1000 nM |
| C[C@@H](CO)NC(=O)CC1CC(c2c(-c3ccc(F)cc3)[nH]c3c(F)cc(F)cc23)C1 (some centres not stated) | > 1000 nM |
| NC(=O)CNC(=O)[C@H]1C[C@@H](c2c(-c3ccc(F)cc3)[nH]c3c(F)cc(F)cc32)C1 | > 1000 nM |
| CC1(C)CC(NC(=O)NC[C@H]2C[C@H](c3c(-c4ccc(F)cc4)[nH]c4c(F)cc(F)cc43)C2)C(=O)O1 (some centres not stated) | > 1000 nM |
| O=C(N[C@H](CO)C(F)(F)F)O[C@H]1C[C@H](c2c(-c3ccc(F)cc3)[nH]c3c(F)cc(F)cc32)C1 | > 1000 nM |
| Cn1cnc(CNC(=O)O[C@H]2C[C@H](c3c(-c4ccc(F)cc4)[nH]c4c(F)cc(F)cc43)C2)c1 | > 1000 nM |
| O=C(NCC1CC(F)(F)C1)[C@H]1C[C@@H](c2c(-c3ccc(F)cc3)[nH]c3c(F)cc(F)cc32)C1 | > 1000 nM |

| SMILES | IC50 |
| --- | --- |
| O=C(CC1CC(c2c(-c3ccc(F)cc3)[nH]c3c(F)cc(F)cc23)C1)N[C@@H]1CCNC1=O (some centres not stated) | > 1000 nM |
| CC(O)[C@H](CO)NC(=O)[C@H]1C[C@@H](c2c(-c3ccc(F)cc3)[nH]c3c(F)cc(F)cc32)C1 (some centres not stated) | > 1000 nM |
| O=C(NC[C@H]1C[C@H](c2c(-c3ccc(F)cc3)[nH]c3c(F)cc(F)cc32)C1)N1CCC[C@@H]1CO | > 1000 nM |
| O=C(N[C@H]1C[C@H](O)C1)[C@H]1C[C@@H](c2c(-c3ccc(F)cc3)[nH]c3c(F)cc(F)cc32)C1 | > 1000 nM |
| O=C(CC1CC(c2c(-c3ccc(F)cc3)[nH]c3c(F)cc(F)cc23)C1)NC1(CO)CCC1 (configuration not stated) | > 1000 nM |
| O=C(NCc1ccc(=O)[nH]c1)C1CC(Cc2c(-c3ccc(F)cc3)[nH]c3c(F)cc(F)cc23)C1 (configuration not stated) | > 1000 nM |
| O=C(N[C@H]1CCOC1=O)C1CC(Cc2c(-c3ccc(F)cc3)[nH]c3c(F)cc(F)cc23)C1 (some centres not stated) | > 1000 nM |
| O=C(NCC1(O)CCC1)C1CC(Cc2c(-c3ccc(F)cc3)[nH]c3c(F)cc(F)cc23)C1 (configuration not stated) | > 1000 nM |
| NC(=O)C(CC(F)(F)F)NCC1CC(c2c(-c3ccc(F)cc3)[nH]c3c(F)cc(F)cc23)C1 (configuration not stated) | > 1000 nM |
| CC1(O)CC(NC(=O)NC[C@H]2C[C@H](c3c(-c4ccc(F)cc4)[nH]c4c(F)cc(F)cc43)C2)C1 (some centres not stated) | > 1000 nM |
| CC(C)CC(NC(=O)[C@H]1C[C@@H](c2c(-c3ccc(F)cc3)[nH]c3c(F)cc(F)cc32)C1)C(N)=O (some centres not stated) | > 1000 nM |
| CC(=O)NCCNC(=O)C1CC(Cc2c(-c3ccc(F)cc3)[nH]c3c(F)cc(F)cc23)C1 (configuration not stated) | > 1000 nM |
| CC(C)(O)CNC(=O)C1CC(Cc2c(-c3ccc(F)cc3)[nH]c3c(F)cc(F)cc23)C1 (configuration not stated) | > 1000 nM |
| CC(CO)NC(=O)[C@H]1C[C@@H](c2c(-c3ccc(F)cc3)[nH]c3c(F)cc(F)cc32)C1 (some centres not stated) | > 1000 nM |
| CS(=O)(=O)CCNC(=O)C1CC(Cc2c(-c3ccc(F)cc3)[nH]c3c(F)cc(F)cc23)C1 (configuration not stated) | > 1000 nM |
| Cn1nccc1NC(=O)[C@H]1C[C@@H](c2c(-c3ccc(F)cc3)[nH]c3c(F)cc(F)cc32)C1 | > 1000 nM |
| CC[C@H](CO)NC(=O)NC[C@H]1C[C@H](c2c(-c3ccc(F)cc3)[nH]c3c(F)cc(F)cc32)C1 | > 1000 nM |
| O=C(NCC(O)C(F)F)C1CC(Cc2c(-c3ccc(F)cc3)[nH]c3c(F)cc(F)cc23)C1 (configuration not stated) | > 1000 nM |
| Cn1nccc1CNC(=O)[C@H]1C[C@@H](c2c(-c3ccc(F)cc3)[nH]c3c(F)cc(F)cc32)C1 | > 1000 nM |
| C[C@@H](O)CNC(=O)N(C)CC1CC(c2c(-c3ccc(F)cc3)[nH]c3c(F)cc(F)cc23)C1 (some centres not stated) | > 1000 nM |
| C[C@]1(NC(=O)NC[C@H]2C[C@H](c3c(-c4ccc(F)cc4)[nH]c4c(F)cc(F)cc43)C2)C[C@@H](O)C1 | > 1000 nM |
| O=C(NCc1cocn1)C1CC(Cc2c(-c3ccc(F)cc3)[nH]c3c(F)cc(F)cc23)C1 (configuration not stated) | > 1000 nM |
| N#CC(CO)NC(=O)C1CC(Cc2c(-c3ccc(F)cc3)[nH]c3c(F)cc(F)cc23)C1 (configuration not stated) | > 1000 nM |
| C[C@@H](O)[C@@H](CO)NC(=O)O[C@H]1C[C@H](c2c(-c3ccc(F)cc3)[nH]c3c(F)cc(F)cc32)C1 | > 1000 nM |
| O=C(NCC1CC(F)(F)C1)C1CC(Cc2c(-c3ccc(F)cc3)[nH]c3c(F)cc(F)cc23)C1 (configuration not stated) | > 1000 nM |
| Cc1cc(CNC(=O)O[C@H]2C[C@H](c3c(-c4ccc(F)cc4)[nH]c4c(F)cc(F)cc43)C2)on1 | > 1000 nM |

The remaining lines, values ahead:

| IC50 | SMILES |
| --- | --- |
| < 250 nM | CNC(=O)CNC[C@H]1C[C@H](c2c(-c3ccc(F)cc3)[nH]c3c(F)cc(F)cc32)C1 |
| > 1000 nM | O=C(NC[C@H]1C[C@H](c2c(-c3ccc(F)cc3)[nH]c3c(F)cc(F)cc32)C1)NC(CO)C(F)(F)F (some centres not stated) |
| 0.25 nM | COCC(C)NC(=O)O[C@H]1C[C@H](c2c(-c3ccc(F)cc3)[nH]c3c(F)cc(F)cc32)C1 (some centres not stated) |
| > 1000 nM | Cn1cc(CNC(=O)C2CC(Cc3c(-c4ccc(F)cc4)[nH]c4c(F)cc(F)cc34)C2)cn1 (configuration not stated) |
| > 1000 nM | C[C@H](CO)N(C)C(=O)NC[C@H]1C[C@H](c2c(-c3ccc(F)cc3)[nH]c3c(F)cc(F)cc32)C1 |
| > 1000 nM | CN1CCN(C(=O)CNCC2CC(c3c(-c4ccc(F)cc4)[nH]c4c(F)cc(F)cc34)C2)CC1 (configuration not stated) |
| > 1000 nM | CC(CO)N(C)C(=O)NC[C@H]1C[C@H](c2c(-c3ccc(F)cc3)[nH]c3c(F)cc(F)cc32)C1 (some centres not stated) |
| > 1000 nM | CC(C)(NCC1CC(c2c(-c3ccc(F)cc3)[nH]c3c(F)cc(F)cc23)C1)C(N)=O (configuration not stated) |
| > 1000 nM | CC(C)C(CO)NC(=O)[C@H]1C[C@@H](c2c(-c3ccc(F)cc3)[nH]c3c(F)cc(F)cc32)C1 (some centres not stated) |
| > 1000 nM | O=C1NCCC1NC(=O)[C@H]1C[C@@H](c2c(-c3ccc(F)cc3)[nH]c3c(F)cc(F)cc32)C1 (some centres not stated) |
| 0.25 nM | Cn1cnc(CNC(=O)C2(C)CC(c3c(-c4ccc(F)cc4)[nH]c4c(F)cc(F)cc34)C2)c1 (configuration not stated) |
| 0.25 nM | CN(C)C(=O)CNCC1CC(c2c(-c3ccc(F)cc3)[nH]c3c(F)cc(F)cc23)C1 (configuration not stated) |
| > 1000 nM | C[C@@H](NCC1CC(c2c(-c3ccc(F)cc3)[nH]c3c(F)cc(F)cc23)C1)C(=O)N(C)C (some centres not stated) |
| 0.25 nM | CON(C)C(=O)CNC[C@H]1C[C@H](c2c(-c3ccc(F)cc3)[nH]c3c(F)cc(F)cc32)C1 |
| > 1000 nM | O=C(NCC1CCNC1=O)NC[C@H]1C[C@H](c2c(-c3ccc(F)cc3)[nH]c3c(F)cc(F)cc32)C1 (some centres not stated) |
| > 1000 nM | CN(CC1CC(c2c(-c3ccc(F)cc3)[nH]c3c(F)cc(F)cc23)C1)C(=O)NCCO (configuration not stated) |
| > 1000 nM | CC1(C)CC(C)(NC(=O)NC[C@H]2C[C@H](c3c(-c4ccc(F)cc4)[nH]c4c(F)cc(F)cc43)C2)C(=O)O1 (some centres not stated) |
| > 1000 nM | CC1(NC(=O)NC[C@H]2C[C@H](c3c(-c4ccc(F)cc4)[nH]c4c(F)cc(F)cc43)C2)CCNC1=O (some centres not stated) |
| > 1000 nM | O=C(NCCn1cccc1)[C@H]1C[C@@H](c2c(-c3ccc(F)cc3)[nH]c3c(F)cc(F)cc32)C1 |
| > 1000 nM | COCC1(CNC(=O)C2CC(Cc3c(-c4ccc(F)cc4)[nH]c4c(F)cc(F)cc34)C2)CC1 (configuration not stated) |
| 0.25 nM | C[C@@H](CO)NC(=O)N[C@H]1C[C@H](c2c(-c3ccc(F)cc3)[nH]c3c(F)cc(F)cc32)C1 |
| < 250 nM | NC(=O)CNC(=O)C1CC(c2c(-c3ccc(F)cc3)[nH]c3c(F)cc(C(F)(F)F)cc23)C1 (configuration not stated) |
| 0.25 nM | CNC(=O)NC[C@H]1C[C@H](c2c(-c3ccc(F)cc3)[nH]c3c(F)cc(F)cc32)C1 |
| < 250 nM | NC(=O)CNC(=O)O[C@H]1C[C@H](c2c(-c3ccc(F)cc3)[nH]c3c(F)cc(F)cc32)C1 |
| 0.25 nM | O=C(NCCO)C1CC(c2c(-c3ccc(F)cc3)[nH]c3c(F)cc(C(F)(F)F)cc23)C1 (configuration not stated) |
| 0.25 nM | O=C(NCc1cnco1)O[C@H]1C[C@H](c2c(-c3ccc(F)cc3)[nH]c3c(F)cc(F)cc32)C1 |
| 0.25 nM | O=C(NC(CO)(CO)CO)[C@H]1C[C@@H](c2c(-c3ccc(F)cc3)[nH]c3c(F)cc(F)cc32)C1 |
| 0.25 nM | O=C(NCC(F)F)N1CC(c2c(-c3ccc(F)cc3)[nH]c3c(F)cc(F)cc23)C1 |
| 0.25 nM | C[C@@H](CO)NC(=O)[C@H]1C[C@@H](c2c(-c3ccc(F)cc3)[nH]c3c(F)cc(F)cc32)C1 |
| < 250 nM | O=C(N[C@@H](CO)C(F)F)[C@H]1C[C@H](c2c(-c3ccc(F)cc3)[nH]c3c(F)cc(F)cc32)C1 |
